Measurements: US20230107983A1, “COMPOUND ISOLATED FROM TORILIDIS FRUCTUS, AND ANTICANCER PHARMACEUTICAL COMPOSITION CONTAINING SAME AS ACTIVE INGREDIENT” (PHARMA-GENE CO., LTD., priority 2020, published 2023)

Columns and labels:
[1] = test system: human lung cancer cells (A549); assay: Nude mouse xenograft model of human lung cancer cells, oral administration; type: in vivo; set-up: Tumor size increase (Vt—V0): unit not given here
Procedure: Anticancer activity against lung cancer according to the oral administration of Tr-9 was confirmed through a nude mouse xenograft model of human lung cancer cells (A549). Specific pathogen-free (SPF) nude mice of the BALB/C strain were used as the animal model. Animals were bred in the animal room of Daedeok Campus of Hannam University maintained at a temperature of 23±3° C., relative humidity of 55±15%, ventilation frequency of 10-20 times/hr, lighting time of 12 hours(lights on at 8 am and off at 8 pm) and illuminance of 150 to 300 Lux.
(§1) For cancer cell transplantation, all cells were collected and counted on the last day of culture, and the concentration of human lung cancer cell line A549 was adjusted to 5×10^6 cells/ml using PBS. The adjusted cell culture solution was injected subcutaneously into the auxiliary region between the right scapula and chest wall at 0.2 ml (1×10^6 cells/mouse) per mouse.
(§2) The Tr-9 was dissolved in sterile PBS and 1 mM Tr-9 200 µℓ was orally administered per mouse once a day, and all animals were weighed immediately before the start of drug (Tr-9) administration and 10 times in total from day 2 to day 23 after cancer cell transplantation (Table 1).
(§3) In Table 1 above, data values are the mean ± standard deviation. After measuring the body weight, the animals were killed using CO2 gas, and the tumor was separated and the size was measured in 3 directions using a vernier caliper for each animal. Then, the change in tumor size was expressed as a calculated value of (length × width × height)/2 (Table 2).
(§4) Tumor size increase is (Δt)= Vt—Vo, wherein Vt is the value of measuring the tumor size by date, and Vo is the value of measuring the initial tumor size.

[2] = test system: human lung cancer cells (A549); assay: Nude mouse xenograft model of human lung cancer cells, intraperitoneal administration; type: in vivo
Procedure: Anticancer activity against lung cancer according to the intraperitoneal administration of Tr-9 was confirmed through a nude mouse xenograft model of human lung cancer cells (A549). In Example 4, it was carried out using the same animal model and method as the oral administration, except that it was administered intraperitoneally.
Specific pathogen-free (SPF) nude mice of the BALB/C strain were used as the animal model. Animals were bred in the animal room of Daedeok Campus of Hannam University maintained at a temperature of 23±3° C., relative humidity of 55±15%, ventilation frequency of 10-20 times/hr, lighting time of 12 hours(lights on at 8 am and off at 8 pm) and illuminance of 150 to 300 Lux.
as §1
The Tr-9 was dissolved in sterile PBS and 1 mM Tr-9 200 µℓ was intraperitoneally administered per mouse once a day, and all animals were weighed immediately before the start of drug (Tr-9) administration and 10 times in total from day 2 to day 23 after cancer cell transplantation (Table 4).
In Table 4 above, data values are the mean ± standard deviation. After measuring the body weight, the animals were killed using CO2 gas, and the tumor was separated and the size was measured in 3 directions using a vernier caliper for each animal. Then, the change in tumor size was expressed as a calculated value of (length × width × height)/2 (Table 4).
as §4

[3] = Change in mouse weight, A549 xenograft, oral administration; type: in vivo, nude mouse; set-up: Change in mouse weight: unit not given here; conditions: once a day
Procedure: as §2, §3

[4] = Change in mouse weight, HCT116 xenograft, intraperitoneal administration; type: in vivo, nude mouse; set-up: Change in mouse weight: unit not given here; conditions: intraperitoneal once a day
Procedure: The Tr-9 was dissolved in sterile PBS and 1 mM Tr-9 200 µℓ was intraperitoneally administered per mouse once a day, and all animals were weighed immediately before the start of drug (Tr-9) administration and 9 times in total from day 2 to day 21 after cancer cell transplantation (Table 7).
In Table 7 above, data values are the mean ± standard deviation. After measuring the body weight, the animals were killed using CO2 gas, and the tumor was separated and the size was measured in 3 directions using a vernier caliper for each animal. Then, the change in tumor size was expressed as a calculated value of (length × width × height)/2 (Table 8).

[5] = intraperitoneal once a day, Day 23

C/C=C(/C)C(=O)O[C@@H]1C[C@H](C)[C@H]2CC(=O)C(C)=C2C[C@@H]1C(C)(C)OC(C)=O [Torilin, torilin, reference compound]
Tumor size increase (Vt—V0) ([1]; oral once a day, Day 0): 0.0±0.0 | Tumor size increase (Vt—V0) ([1]; oral once a day, Day 2): 11.4±11.7 | Inhibition rate (tumor size increase) ([1]; oral once a day, Day 2, vs control): 5.8% | Tumor size increase (Vt—V0) ([1]; oral once a day, Day 5): 18.1±9.4 | Inhibition rate (tumor size increase) ([1]; oral once a day, Day 5, vs control): 10.8% | Tumor size increase (Vt—V0) ([1]; oral once a day, Day 7): 28.6±3.0 | Inhibition rate (tumor size increase) ([1]; oral once a day, Day 7, vs control): 11.7% | Tumor size increase (Vt—V0) ([1]; oral once a day, Day 9): 42.0±9.8 | Inhibition rate (tumor size increase) ([1]; oral once a day, Day 9, vs control): 20.9% | Inhibition rate (tumor size increase) ([1]; oral once a day, Day 12, vs control): 27.0% | Tumor size increase (Vt—V0) ([1]; oral once a day, Day 14): 134.6±37.6 | Inhibition rate (tumor size increase) ([1]; oral once a day, Day 14, vs control): 26.0% | Tumor size increase (Vt—V0) ([1]; oral once a day, Day 16): 211.8±32.9 | Inhibition rate (tumor size increase) ([1]; oral once a day, Day 16, vs control): 27.0% | Tumor size increase (Vt—V0) ([1]; oral once a day, Day 19): 362.2±64.2 | Inhibition rate (tumor size increase) ([1]; oral once a day, Day 19, vs control): 31.5% | Tumor size increase (Vt—V0) ([1]; oral once a day, Day 21): 493.4±82.6 | Inhibition rate (tumor size increase) ([1]; oral once a day, Day 21, vs control): 33.0% | Tumor size increase (Vt—V0) ([1]; oral once a day, Day 23): 646.9±108.8 | Tumor weight at Day 23 ([1]; oral once a day, Day 23): 0.745 ± 0.196 g | Tumor weight reduction rate compared to control group ([1]; oral once a day, Day 23): 29.5% | Inhibition rate (tumor size increase) ([1]; oral once a day, Day 23, vs control): 34.1% | tumor size compared to the control group ([1]; oral, after day 19): statistically significantly smaller | Tumor size increase (Vt−V0) ([2]; intraperitoneal once a day, Day 0, table title: Change in tumor size): 0.0±0.0 | Tumor size increase (Vt−V0) ([2]; intraperitoneal once a day, Day 2, table title: Change in tumor size): 13.2±13.2 | Inhibition rate (tumor size increase) ([2]; intraperitoneal once a day, Day 2, vs control): 2.9% | Tumor size increase (Vt−V0) ([2]; intraperitoneal once a day, Day 5, table title: Change in tumor size): 19.91±0.4 | Inhibition rate (tumor size increase) ([2]; intraperitoneal once a day, Day 5, vs control): 4.8% | Tumor size increase (Vt−V0) ([2]; intraperitoneal once a day, Day 7, table title: Change in tumor size): 28.9±12.5 | Inhibition rate (tumor size increase) ([2]; intraperitoneal once a day, Day 7, vs control): 14.7% | Tumor size increase (Vt−V0) ([2]; intraperitoneal once a day, Day 9, table title: Change in tumor size): 38.0±8.1 | Inhibition rate (tumor size increase) ([2]; intraperitoneal once a day, Day 9, vs control): 17.0% | Tumor size increase (Vt−V0) ([2]; intraperitoneal once a day, Day 12, table title: Change in tumor size): 75.1±10.7 | Inhibition rate (tumor size increase) ([2]; intraperitoneal once a day, Day 12, vs control): 14.6% | Tumor size increase (Vt−V0) ([2]; intraperitoneal once a day, Day 14, table title: Change in tumor size): 127.0±25.8 | Inhibition rate (tumor size increase) ([2]; intraperitoneal once a day, Day 14, vs control): 15.6% | Tumor size increase (Vt−V0) ([2]; intraperitoneal once a day, Day 16, table title: Change in tumor size): 210.5±44.8 | Inhibition rate (tumor size increase) ([2]; intraperitoneal once a day, Day 16, vs control): 19.9% | Tumor size increase (Vt−V0) ([2]; intraperitoneal once a day, Day 19, table title: Change in tumor size): 394.8±93.5 | Inhibition rate (tumor size increase) ([2]; intraperitoneal once a day, Day 19, vs control): 22.9% | Tumor size increase (Vt−V0) ([2]; intraperitoneal once a day, Day 21, table title: Change in tumor size): 525.2±99.1 | Inhibition rate (tumor size increase) ([2]; intraperitoneal once a day, Day 21, vs control): 22.7% | Tumor weight at Day 23 [2, 5]: 0.97 ± 0.183 g | Tumor weight reduction rate compared to control group [2, 5]: 28.6% | Tumor size increase (Vt−V0) ([2]; intraperitoneal once a day, Day 23, table title: Change in tumor size): 695.0±110.6 | Inhibition rate (tumor size increase) ([2]; intraperitoneal once a day, Day 23, vs control): 27.0% | tumor size compared to the control group ([2]; intraperitoneal, after day 19): statistically significantly smaller | Change in mouse weight ([3]; 0 Day after drug treatment): 100.0 ±0.0 | Change in mouse weight ([3]; 2 Days after drug treatment): 100.0 ±3.0 | Change in mouse weight ([3]; 5 Days after drug treatment): 97.2 ±2.5 | Change in mouse weight ([3]; 7 Days after drug treatment): 99.5 ±3.5 | Change in mouse weight ([3]; 9 Days after drug treatment): 105.7 ±7.0 | Change in mouse weight ([3]; 12 Days after drug treatment): 101.0 ±6.2 | Change in mouse weight ([3]; 14 Days after drug treatment): 101.8 ±5.5 | Change in mouse weight ([3]; 16 Days after drug treatment): 103.9 ±5.8 | Change in mouse weight ([3]; 19 Days after drug treatment): 101.1 ±5.8 | Change in mouse weight ([3]; 21 Days after drug treatment): 102.9 ±6.0 | Change in mouse weight ([3]; 23 Days after drug treatment): 105.0 ±7.1 | difference in body weight according to the administration of the drugs ([3]; day 2 to day 23): almost no difference in body weight | Change in mouse weight ([4]; 0 Day after drug treatment): 100.0 ±0.0 | Change in mouse weight ([4]; 2 Days after drug treatment): 100.5 ±1.8 | Change in mouse weight ([4]; 5 Days after drug treatment): 101.4 ±2.7 | Change in mouse weight ([4]; 7 Days after drug treatment): 98.4 ±2.7 | Change in mouse weight ([4]; 9 Days after drug treatment): 98.4 ±2.8 | Change in mouse weight ([4]; 11 Days after drug treatment): 98.8 ±3.2 | Change in mouse weight ([4]; 14 Days after drug treatment): 98.2 ±4.3 | Change in mouse weight ([4]; 16 Days after drug treatment): 98.6 ±4.9 | Change in mouse weight ([4]; 18 Days after drug treatment): 100.0 ±5.3 | Change in mouse weight ([4]; 21 Days after drug treatment): 101.8 ±7.3 | difference in body weight according to the administration of the drugs ([4]; day 2 to day 21): almost no difference in body weight
